# Values quoted from earlier work, collected in patent publication US20020090388A1, “Intravascular drug delivery device and use therefor” (priority 2000, published 2002).
# Test system: primary pulmonary hypertension
# Details: patients with primary pulmonary hypertension
smiles,measurement,value
CC#CCC(C)[C@H](O)/C=C/[C@@H]1[C@H]2C/C(=C/CCCC(=O)O)C[C@H]2C[C@H]1O (stereo partly shown) [Iloprost],mean level of dose required to provide significant therapeutic benefits,2.1 ng/kg/min
